In ChEMBL document CHEMBL5055685, “Discovery of the First Potent IDO1/IDO2 Dual Inhibitors: A Promising Strategy for Cancer Immunotherapy” (J Med Chem, 2021):
Activity calls are given as the source filed them. No cut-off for these calls is given here.

How the values were obtained:
[1] = target: Serine/threonine-protein kinase WNK2 (Homo sapiens) (UniProt Q9Y3S1); test: Inhibition of WNK2 (unknown origin) at 1 uM
[2] = target: Serine/threonine-protein kinase Sgk1 (Homo sapiens) (UniProt O00141); test: Inhibition of SGK1 (unknown origin) at 1 uM
[3] = target: Myosin light chain kinase (Homo sapiens) (UniProt Q32MK0); test: Inhibition of MYLK3 (unknown origin) at 1 uM
[4] = Half life in human liver microsomes; type: ADME, Microsome
[5] = target: Casein kinase I isoform alpha (Homo sapiens) (UniProt P48729); test: Inhibition of CK1a1 (unknown origin) at 1 uM
[6] = target: Dual specificity mitogen-activated protein kinase kinase 1 (Homo sapiens) (UniProt Q02750); test: Inhibition of MEK1 (unknown origin) at 1 uM
[7] = target: Mitogen-activated protein kinase 14 (Homo sapiens) (UniProt Q16539); test: Inhibition of p38alpha (unknown origin) at 1 uM
Homo sapiens = species: Homo sapiens; test: Inhibition of ALK6 (unknown origin) at 1 uM
[8] = target: Indoleamine 2,3-dioxygenase 1 (Homo sapiens, UniProt P14902); test: Inhibition of IDO1 in IFNgamma-stimulated human HeLa cells assessed as reduction in kynurenine formation measured after 48 hrs by spectrophotometry
[9] = target: Serine/threonine-protein kinase tousled-like 1 (Homo sapiens) (UniProt Q9UKI8); test: Inhibition of TLK1 (unknown origin) at 1 uM
[10] = target: Serine/threonine-protein kinase SBK1 (Homo sapiens) (UniProt Q52WX2); test: Inhibition of SBK1 (unknown origin) at 1 uM
[11] = target: Proto-oncogene tyrosine-protein kinase ROS (Homo sapiens) (UniProt P08922); test: Inhibition of ROS (unknown origin) at 1 uM
[12] = target: CDK6/cyclin D1 (Homo sapiens) (UniProt P24385+Q00534); test: Inhibition of CDK6/cyclin-D1 (unknown origin) at 1 uM; type: protein-complex assay
[13] = target: Tyrosine-protein kinase Fer (Homo sapiens) (UniProt P16591); test: Inhibition of FER (unknown origin) at 1 uM
[14] = target: Calcium/calmodulin-dependent protein kinase type 1D (Homo sapiens) (UniProt Q8IU85); test: Inhibition of CAMK1D (unknown origin) at 1 uM
[15] = target: Serine/threonine-protein kinase Sgk2 (Homo sapiens) (UniProt Q9HBY8); test: Inhibition of SGK2 (unknown origin) at 1 uM
[16] = target: Serine/threonine-protein kinase VRK2 (Homo sapiens) (UniProt Q86Y07); test: Inhibition of VRK2 (unknown origin) at 1 uM
[17] = Half life in Sprague-Dawley rat at 50 mg/kg, po; type: ADME, organism-based; settings: in vivo
[18] = target: High affinity nerve growth factor receptor (Homo sapiens) (UniProt P04629); test: Inhibition of TRKA (unknown origin) at 1 uM
[19] = target: Dual specificity tyrosine-phosphorylation-regulated kinase 3 (Homo sapiens) (UniProt O43781); test: Inhibition of DYRK3 (unknown origin) at 1 uM
[20] = target: Insulin-like growth factor 1 receptor (Homo sapiens) (UniProt P08069); test: Inhibition of IGF1R (unknown origin) at 1 uM
Mus musculus = test: Toxicity in BALB/c mouse implanted with mouse CT26 cells assessed as weight loss at 50 mg/kg, ip bid for 28 days; type: organism-based; settings: in vivo, 672 h, time 28 day
[21] = target: Ephrin type-A receptor 7 (Homo sapiens) (UniProt Q15375); test: Inhibition of EPHA7 (unknown origin) at 1 uM
[22] = target: Serine/threonine-protein kinase WNK1 (Homo sapiens) (UniProt Q9H4A3); test: Inhibition of WNK1 (unknown origin) at 1 uM
HCT-116 [23] = test: Antitumor activity against human HCT-116 cells xenografted in BALB/c nude mouse assessed as tumor growth inhibition at 100 to 300 mg/kg, ig bid for 21 days by vernier caliper method; type: functional, organism-based; settings: dose 100-300 mg/kg, time 21.0 day
[24] = target: Mitogen-activated protein kinase kinase kinase kinase 5 (Homo sapiens) (UniProt Q9Y4K4); test: Inhibition of KHS (unknown origin) at 1 uM
[25] = target: MAP kinase-interacting serine/threonine-protein kinase 2 (Homo sapiens) (UniProt Q9HBH9); test: Inhibition of MNK2 (unknown origin) at 1 uM
[26] = target: Protein kinase C zeta type (Homo sapiens) (UniProt Q05513); test: Inhibition of PKCzeta (unknown origin) at 1 uM
HCT-116 [27] = test: Antitumor immunity in BALB/c mouse xenografted with human HCT-116 cells assessed as induction of apoptosis of CD4+ T-lymphocytes in tumor-draining lymph nodes by propidium iodide staining based flow cytometry analysis (reference value: 21.9 %); type: functional
[28] = Toxicity in rat assessed as maximum tolerated dose; type: organism-based; settings: in vivo
[29] = target: Mitogen-activated protein kinase kinase kinase 20 (Homo sapiens) (UniProt Q9NYL2); test: Inhibition of ZAK (unknown origin) at 1 uM
HCT-116 [30] = test: Antitumor immunity in BALB/c mouse xenografted with human HCT-116 cells assessed as live Treg cells in spleen by propidium iodide staining based flow cytometry analysis (reference value: 70.9 %); type: functional
[31] = Apparent permeability across apical to basolateral side in human Caco-2 cells assessed as drug recovery; type: ADME, cell-based; settings: read-out: Drug recovery
[32] = target: Serine/threonine-protein kinase/endoribonuclease IRE1 (Homo sapiens) (UniProt O75460); test: Inhibition of ERN1 (unknown origin) at 1 uM
[33] = target: Serine/threonine-protein kinase Nek8 (Homo sapiens) (UniProt Q86SG6); test: Inhibition of NEK8 (unknown origin) at 1 uM
[34] = target: Ribosomal protein S6 kinase beta-1 (Homo sapiens) (UniProt P23443); test: Inhibition of p70S6K (unknown origin) at 1 uM
[35] = target: Serine/threonine-protein kinase D3 (Homo sapiens) (UniProt O94806); test: Inhibition of PKCnu (unknown origin) at 1 uM
[36] = target: cGMP-dependent protein kinase 1 (Homo sapiens) (UniProt Q13976); test: Inhibition of PKG1alpha (unknown origin) at 1 uM
[37] = target: Serine/threonine-protein kinase MRCK gamma (Homo sapiens) (UniProt Q6DT37); test: Inhibition of DMPK2 (unknown origin) at 1 uM
[38] = target: RAC-gamma serine/threonine-protein kinase (Homo sapiens) (UniProt Q9Y243); test: Inhibition of AKT3 (unknown origin) at 1 uM
[39] = target: Protein-tyrosine kinase 2-beta (Homo sapiens) (UniProt Q14289); test: Inhibition of PYK2 (unknown origin) at 1 uM
[40] = Intrinsic clearance in human liver microsomes; type: ADME, Microsome; settings: read-out: CLH
[41] = target: Ribosomal protein S6 kinase alpha-1 (Homo sapiens) (UniProt Q15418); test: Inhibition of RSK1 (unknown origin) at 1 uM
[42] = target: Testis-specific serine/threonine-protein kinase 3 (Homo sapiens) (UniProt Q96PN8); test: Inhibition of TSSK3 (unknown origin) at 1 uM

Sequence of Ribosomal protein S6 kinase beta-1 (Homo sapiens) (P23443 whole entry, looked up): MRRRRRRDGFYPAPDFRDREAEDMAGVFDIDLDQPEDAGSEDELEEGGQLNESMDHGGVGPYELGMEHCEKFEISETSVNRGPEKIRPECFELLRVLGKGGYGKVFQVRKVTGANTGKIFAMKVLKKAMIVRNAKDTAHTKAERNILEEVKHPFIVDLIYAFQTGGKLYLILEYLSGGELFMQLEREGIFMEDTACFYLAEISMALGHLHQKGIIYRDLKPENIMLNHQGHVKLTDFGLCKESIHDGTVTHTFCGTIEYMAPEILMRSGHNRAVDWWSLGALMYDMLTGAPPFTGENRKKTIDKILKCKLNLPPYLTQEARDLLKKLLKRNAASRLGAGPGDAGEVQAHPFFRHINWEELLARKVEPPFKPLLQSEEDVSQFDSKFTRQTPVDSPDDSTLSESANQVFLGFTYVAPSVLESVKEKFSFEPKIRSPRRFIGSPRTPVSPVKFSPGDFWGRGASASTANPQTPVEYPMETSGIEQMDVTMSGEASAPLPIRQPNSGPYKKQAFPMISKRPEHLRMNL
Sequence of Ephrin type-A receptor 7 (Homo sapiens) (Q15375 28-998 limits assumed): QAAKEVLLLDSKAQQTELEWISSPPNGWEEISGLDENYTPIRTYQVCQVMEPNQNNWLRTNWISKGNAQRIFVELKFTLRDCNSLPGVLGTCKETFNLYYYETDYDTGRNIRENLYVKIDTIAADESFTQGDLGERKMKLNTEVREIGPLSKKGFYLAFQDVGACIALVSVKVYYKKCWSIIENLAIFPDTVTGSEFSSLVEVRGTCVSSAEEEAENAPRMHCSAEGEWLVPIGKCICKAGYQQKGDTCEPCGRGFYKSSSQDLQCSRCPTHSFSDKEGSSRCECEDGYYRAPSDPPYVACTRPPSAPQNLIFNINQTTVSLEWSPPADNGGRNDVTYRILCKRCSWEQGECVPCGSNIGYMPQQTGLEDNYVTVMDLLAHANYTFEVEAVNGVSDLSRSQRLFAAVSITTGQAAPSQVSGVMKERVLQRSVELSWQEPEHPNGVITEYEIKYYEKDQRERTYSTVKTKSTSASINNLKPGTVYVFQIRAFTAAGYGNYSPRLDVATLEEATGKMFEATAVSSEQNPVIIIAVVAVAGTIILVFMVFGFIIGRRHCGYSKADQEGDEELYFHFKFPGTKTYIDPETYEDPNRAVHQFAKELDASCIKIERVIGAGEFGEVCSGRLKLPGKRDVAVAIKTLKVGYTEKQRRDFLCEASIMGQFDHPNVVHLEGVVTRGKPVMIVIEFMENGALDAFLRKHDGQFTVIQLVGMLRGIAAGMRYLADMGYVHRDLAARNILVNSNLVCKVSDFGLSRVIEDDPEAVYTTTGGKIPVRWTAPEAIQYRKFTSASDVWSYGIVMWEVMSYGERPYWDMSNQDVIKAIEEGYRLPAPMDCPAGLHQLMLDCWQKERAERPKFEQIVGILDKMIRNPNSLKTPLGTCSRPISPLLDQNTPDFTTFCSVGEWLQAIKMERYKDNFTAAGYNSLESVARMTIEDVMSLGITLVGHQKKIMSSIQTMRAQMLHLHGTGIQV
Sequence of High affinity nerve growth factor receptor (Homo sapiens) (P04629 33-796 limits assumed): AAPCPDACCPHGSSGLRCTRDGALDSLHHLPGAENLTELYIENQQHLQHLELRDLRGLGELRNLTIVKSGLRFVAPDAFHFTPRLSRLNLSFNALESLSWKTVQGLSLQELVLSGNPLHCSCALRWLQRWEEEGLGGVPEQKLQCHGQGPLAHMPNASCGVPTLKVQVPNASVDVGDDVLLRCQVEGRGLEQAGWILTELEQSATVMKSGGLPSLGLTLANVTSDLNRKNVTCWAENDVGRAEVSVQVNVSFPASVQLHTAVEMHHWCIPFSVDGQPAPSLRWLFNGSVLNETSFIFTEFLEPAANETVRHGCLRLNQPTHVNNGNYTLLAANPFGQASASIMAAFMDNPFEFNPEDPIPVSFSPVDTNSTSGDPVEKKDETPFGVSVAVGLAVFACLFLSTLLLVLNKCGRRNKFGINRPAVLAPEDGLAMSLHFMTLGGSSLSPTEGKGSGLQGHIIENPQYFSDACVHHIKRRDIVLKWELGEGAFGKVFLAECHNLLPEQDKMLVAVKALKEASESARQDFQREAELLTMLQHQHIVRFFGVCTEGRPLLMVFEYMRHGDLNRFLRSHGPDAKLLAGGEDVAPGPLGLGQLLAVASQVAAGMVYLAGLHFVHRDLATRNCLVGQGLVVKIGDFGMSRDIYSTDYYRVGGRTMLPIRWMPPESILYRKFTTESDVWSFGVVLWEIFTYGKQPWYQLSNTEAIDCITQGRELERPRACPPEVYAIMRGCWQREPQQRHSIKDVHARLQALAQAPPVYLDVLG
Sequence of Serine/threonine-protein kinase MRCK gamma (Homo sapiens) (Q6DT37 whole entry): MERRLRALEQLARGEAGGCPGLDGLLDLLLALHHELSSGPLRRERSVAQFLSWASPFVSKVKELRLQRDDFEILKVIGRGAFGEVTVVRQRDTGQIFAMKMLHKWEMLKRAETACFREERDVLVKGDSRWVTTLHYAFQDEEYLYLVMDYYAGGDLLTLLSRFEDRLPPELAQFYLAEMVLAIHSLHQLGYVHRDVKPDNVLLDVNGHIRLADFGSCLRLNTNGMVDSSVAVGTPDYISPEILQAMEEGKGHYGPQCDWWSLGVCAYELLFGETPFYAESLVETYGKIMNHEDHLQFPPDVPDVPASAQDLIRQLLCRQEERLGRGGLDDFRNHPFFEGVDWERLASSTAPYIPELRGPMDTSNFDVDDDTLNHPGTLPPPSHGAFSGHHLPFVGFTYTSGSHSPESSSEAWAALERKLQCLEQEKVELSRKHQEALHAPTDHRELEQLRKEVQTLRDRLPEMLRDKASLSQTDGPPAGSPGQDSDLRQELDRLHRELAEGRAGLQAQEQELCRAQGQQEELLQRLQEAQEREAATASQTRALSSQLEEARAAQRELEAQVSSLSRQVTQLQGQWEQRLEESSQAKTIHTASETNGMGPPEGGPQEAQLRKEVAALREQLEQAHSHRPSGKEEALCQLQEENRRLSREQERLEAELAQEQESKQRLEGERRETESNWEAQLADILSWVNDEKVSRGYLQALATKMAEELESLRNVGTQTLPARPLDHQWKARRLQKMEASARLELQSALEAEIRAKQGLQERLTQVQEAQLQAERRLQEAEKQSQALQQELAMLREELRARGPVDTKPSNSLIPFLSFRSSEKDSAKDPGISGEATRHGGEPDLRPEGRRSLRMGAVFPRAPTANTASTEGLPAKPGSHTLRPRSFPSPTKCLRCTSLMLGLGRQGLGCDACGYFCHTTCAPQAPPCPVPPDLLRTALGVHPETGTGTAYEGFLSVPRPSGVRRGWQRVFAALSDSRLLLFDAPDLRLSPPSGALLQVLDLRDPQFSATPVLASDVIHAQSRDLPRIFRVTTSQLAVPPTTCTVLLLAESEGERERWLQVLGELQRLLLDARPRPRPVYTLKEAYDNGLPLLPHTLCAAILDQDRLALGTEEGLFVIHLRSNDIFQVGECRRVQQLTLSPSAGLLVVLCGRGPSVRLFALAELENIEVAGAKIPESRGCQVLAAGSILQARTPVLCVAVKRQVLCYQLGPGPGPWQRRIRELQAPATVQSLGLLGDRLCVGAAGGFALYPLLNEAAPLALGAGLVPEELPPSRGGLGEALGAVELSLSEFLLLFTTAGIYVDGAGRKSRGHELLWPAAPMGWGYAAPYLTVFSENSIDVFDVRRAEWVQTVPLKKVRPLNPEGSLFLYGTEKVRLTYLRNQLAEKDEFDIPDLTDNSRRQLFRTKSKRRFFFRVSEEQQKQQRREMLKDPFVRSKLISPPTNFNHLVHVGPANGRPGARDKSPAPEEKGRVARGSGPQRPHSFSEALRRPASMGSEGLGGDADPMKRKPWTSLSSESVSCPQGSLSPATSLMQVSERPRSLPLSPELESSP
Sequence of Indoleamine 2,3-dioxygenase 1 (P14902 whole entry): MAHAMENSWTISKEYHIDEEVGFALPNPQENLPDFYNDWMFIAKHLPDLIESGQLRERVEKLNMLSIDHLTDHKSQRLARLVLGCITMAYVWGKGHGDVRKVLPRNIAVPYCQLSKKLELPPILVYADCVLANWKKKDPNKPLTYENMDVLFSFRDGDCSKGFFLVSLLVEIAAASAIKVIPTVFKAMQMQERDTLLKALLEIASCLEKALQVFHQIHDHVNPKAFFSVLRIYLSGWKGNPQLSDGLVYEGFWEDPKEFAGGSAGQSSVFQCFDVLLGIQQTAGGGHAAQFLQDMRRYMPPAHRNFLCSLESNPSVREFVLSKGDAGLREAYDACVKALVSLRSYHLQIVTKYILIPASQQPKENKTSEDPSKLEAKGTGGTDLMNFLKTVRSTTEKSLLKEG
Sequence of Serine/threonine-protein kinase Sgk2 (Homo sapiens) (Q9HBY8 whole entry): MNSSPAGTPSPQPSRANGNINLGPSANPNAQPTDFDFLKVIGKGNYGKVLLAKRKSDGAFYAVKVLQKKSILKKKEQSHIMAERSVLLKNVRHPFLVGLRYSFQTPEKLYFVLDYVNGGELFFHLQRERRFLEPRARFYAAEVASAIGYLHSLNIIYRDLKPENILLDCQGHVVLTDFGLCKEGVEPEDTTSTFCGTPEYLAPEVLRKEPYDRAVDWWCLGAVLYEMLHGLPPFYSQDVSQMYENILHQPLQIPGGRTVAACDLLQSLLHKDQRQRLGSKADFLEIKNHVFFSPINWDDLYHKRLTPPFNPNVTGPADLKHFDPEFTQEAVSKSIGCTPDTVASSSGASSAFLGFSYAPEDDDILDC
Sequence of Serine/threonine-protein kinase SBK1 (Homo sapiens) (Q52WX2 whole entry): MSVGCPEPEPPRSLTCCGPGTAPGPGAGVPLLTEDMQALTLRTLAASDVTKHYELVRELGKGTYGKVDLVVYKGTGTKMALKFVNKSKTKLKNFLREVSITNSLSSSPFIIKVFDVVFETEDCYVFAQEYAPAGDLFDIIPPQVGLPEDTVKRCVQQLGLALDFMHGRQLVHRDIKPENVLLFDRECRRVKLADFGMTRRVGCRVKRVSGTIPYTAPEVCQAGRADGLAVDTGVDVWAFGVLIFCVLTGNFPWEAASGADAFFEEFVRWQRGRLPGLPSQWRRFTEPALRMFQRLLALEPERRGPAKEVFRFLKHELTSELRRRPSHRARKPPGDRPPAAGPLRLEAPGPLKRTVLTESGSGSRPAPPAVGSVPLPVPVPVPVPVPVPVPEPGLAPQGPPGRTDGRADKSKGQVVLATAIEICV

For OCCOCc1cn(CCNc2nonc2/C(=N/O)Nc2ccc(F)c(Br)c2)nn1, the inhibition [1] was “inactive”, the inhibition [2] was “inactive” and the inhibition [3] was “inactive”. The half-life [4] was 0.768 h, the inhibition [5] was “inactive” and the inhibition [6] was “inactive”. For the same molecule, the inhibition [7] was “inactive”, the inhibition (Homo sapiens) was “inactive” and the IC50 [8] was 2.16 nM. The inhibition [9] was “inactive”, the inhibition [10] was “inactive” and the inhibition [11] was “inactive”. The inhibition [12] was “inactive”, the inhibition [13] was “inactive” and the inhibition [14] was “inactive”. For the same molecule, the inhibition [15] was “inactive”, the inhibition [16] was “inactive” and the half-life [17] was 1.9 h. The inhibition [18] was “inactive”, the inhibition [19] was “inactive” and the inhibition [20] was “inactive”. For the same molecule, the Activity (Mus musculus) was “Non-Toxic”, the inhibition [21] was “inactive” and the inhibition [22] was “inactive”. The Activity (HCT-116 [23]) was “inactive”, the inhibition [24] was “inactive” and the inhibition [25] was “inactive”. For the same molecule, the inhibition [26] was “inactive”, the Activity (HCT-116 [27]) was 8.83% and the MTD [28] was 2 mg/kg. The inhibition [29] was “inactive”, the Activity (HCT-116 [30]) was 87.4% and the recovery [31] was 91.1%. The inhibition [32] was “inactive”, the inhibition [33] was “inactive” and the inhibition [34] was “inactive”. The inhibition [35] was “inactive”, the inhibition [36] was “inactive” and the inhibition [37] was “inactive”. The inhibition [38] was “inactive”, the inhibition [39] was “inactive” and the microsomal CLint [40] was 30.1 µL/min/mg. The inhibition [41] was “inactive” and the inhibition [42] was “inactive”.
